# Target: T1, YjgB (ECL_RS22935), alcohol dehydrogenase (Enterobacter cloacae, UniProt A0A0H3CR94)
# T1 construct: gene ECL_04598; full-length ORF in pET-28a(+), His-tag fusion, E. coli BL21(DE3) with ZnCl2, HisTrap
# Assay: HPLC product formation assay
# Assay type: biochemical
# Conditions: 200 uM substrate, 0.2 mM NADPH, 50 mM Tris-HCl, pH 8.0, 37 °C, 10 uM enzyme
# T1 sequence (A0A0H3CR94 entry or part of it): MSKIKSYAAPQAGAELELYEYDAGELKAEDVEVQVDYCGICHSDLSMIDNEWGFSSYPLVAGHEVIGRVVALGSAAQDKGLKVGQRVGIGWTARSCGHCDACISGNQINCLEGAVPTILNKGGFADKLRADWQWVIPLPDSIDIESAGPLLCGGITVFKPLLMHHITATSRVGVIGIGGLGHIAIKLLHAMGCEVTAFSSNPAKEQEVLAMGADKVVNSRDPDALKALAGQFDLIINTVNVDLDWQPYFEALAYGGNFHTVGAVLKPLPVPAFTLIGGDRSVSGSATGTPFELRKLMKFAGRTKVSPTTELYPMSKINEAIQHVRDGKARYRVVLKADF
row,SMILES,HPLC product formation assay
1,OCCc1c[nH]c2ccccc12 [indole-3-ethanol],YjgB directly catalyzed the conversion of indole-3-acetaldehyde to indole-3-ethanol
2,O=CCc1c[nH]c2ccccc12 [indole-3-acetaldehyde],In vitro enzymatic assays demonstrated that YjgB directly catalyzed the conversion of indole-3-acetaldehyde to indole-3-ethanol

# — PMC12175533, “A cell-cell communication signal from Enterobacter cloacae interfering with the signaling systems and virulence in Shigella sonnei” (Applied and Environmental Microbiology, 2025)
